This passage reports IC50 and inhibition results from ChEMBL document CHEMBL1158290, “Two fungal lanostane derivatives as phospholipase A2 inhibitors” (J Nat Prod, 1996).

Assay [1] addresses Acidic phospholipase A2 2 (Naja naja, UniProt P15445). Kind of assay: Inhibition of snake venom phospholipase A2 assessed as oxygen consumption for 3 mins.
In assay [2] the target is Acidic phospholipase A2 2 (Naja naja) (UniProt P15445). Kind of assay: Inhibition of snake venom phospholipase A2 at 1 mM assessed as oxygen consumption for 3 mins.
Assay [3] has the same target. As to conditions: 5.800 mM.
Description: Inhibition of snake venom phospholipase A2 at 5.800 mM assessed as oxygen consumption for 3 mins
For assay [4] the target is unchanged. Kind of assay: Inhibition of snake venom phospholipase A2 at 3.700 mM assessed as oxygen consumption for 3 mins.

Molecules are shown by their SMILES.

Chain of Acidic phospholipase A2 2 (P15445 whole entry): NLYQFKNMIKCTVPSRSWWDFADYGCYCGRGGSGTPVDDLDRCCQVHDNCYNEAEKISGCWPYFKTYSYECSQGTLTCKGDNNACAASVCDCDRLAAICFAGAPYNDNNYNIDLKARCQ
Chain of Acidic phospholipase A2 2 (Naja naja) (P15445 whole entry): as above

Consider `C=C(CC[C@@H](C(=O)O)[C@H]1[C@H](O)C[C@@]2(C)C3=CC[C@H]4C(C)(C)[C@@H](O)CC[C@]4(C)C3=CC[C@]12C)C(C)C` [DEHYDROTUMULOSIC ACID], for which, in assay [1], the IC50 was 845 µM. For the same molecule, in assay [2], the inhibition came to 58.6%.
In assay [3], `CCN(CC)CCCC(C)Nc1c2ccc(Cl)cc2nc2ccc(OC)cc12` (stereo unspecified) [QUINACRINE] gave an inhibition of 85.5%. The IC50 in assay [1] is 2160 µM.
For the molecule `C=C(CC[C@@H](C(=O)O)[C@H]1[C@H](O)C[C@@]2(C)C3=C(CC[C@]12C)[C@@]1(C)CC[C@H](OC(C)=O)C(C)(C)[C@@H]1CC3)C(C)C` [PACHYMIC ACID], the inhibition in assay [4] was 66%. Besides, the IC50 in assay [1] was 2900 µM.

One may read the IC50 as the concentration that gives 50% inhibition. A word on the inhibition: it is the relative decrease from the control value, in per cent.
